Measurements taken from patent US20230381094A1, “Cosmetic Composition with Skin Microbiome-Friendly Properties” (LG Household & Health Care Ltd., priority 2022, published 2023).

Tested on: Staphylococcus epidermidis
Test: Beneficial skin bacteria affinity evaluation (challenge test)
Assay type: cell-based
Details: Experimental Example 1; ingredient in oil-in-water composition of Preparation Example 1; FIG. 2 / FIG. 3
Text: As the beneficial bacteria serving as the affinity evaluation criterion of each composition prepared in Preparation Example 1, Staphylococcus epidermidis (S. epidermidis), a Gram positive bacterium, was selected. S. epidermidis is part of the skin flora present in large numbers in healthy skin, and is a representative beneficial bacterium that helps improve skin immunity and protect skin from external environmental factors by producing peptide antibiotics or PSM (phenol-soluble modulins) (Parlet, C. P., et al. (2019) Trends in microbiology, 27(6), 497-507). The evaluation of affinity for beneficial bacteria was performed by the challenge test method (Russell A. D., (2003), Int J Cosmet Sci., 25(3), 147-153) as follows.
Specifically, S. epidermidis was first incubated in TSA (Tryptic Soy Agar) medium at 37° C. for 24 hours, and then inoculated into 50.0 g of each composition prepared in Preparation Example 1 so as to be 1×10^6 CFU to 1×10^7 CFU (colony-forming units)/mL. After inoculation, the bacteria were evenly mixed in the composition by vortexing or using a sterilized stick. After inoculation, the mixture was stored at room temperature. In consideration of the product usage cycle, such as cosmetics, and the general usage patterns of these products, a maximum of 24 hours was set as the time required for examination. With this determination, 24 hours after inoculation, 1 mL of the composition inoculated with the bacteria was diluted stepwise using a 0.85% NaCl solution, 100 μL of each diluted solution was spread on TSA medium, incubation was conducted at 37° C. for 48 hours, and then CFUs were counted.
As the affinity evaluation criterion, the following “bacterial growth index*” parameter was used, and a composition having a bacterial growth index of −1.00 or more on day 1 after inoculation of bacteria was selected as a “cosmetic with beneficial skin bacteria-friendly properties” having an effect of maintaining beneficial skin bacteria or enhancing beneficial skin bacteria.
*Bacterial growth index=log10[{Number of viable bacteria (CFU/g)}/{Number of inoculated bacteria (CFU/g)}]

Compound	growth of beneficial bacteria (result in words)
C=CCCCCCCCCC(=O)OCCCCCCC [heptyl undecylenate]	inhibit the growth of beneficial bacteria
CCOCCOCCOC(=O)C1CCC(C(=O)OCCOCCOCC)CC1 (centres unmarked) [bis-ethoxydiglycol cyclohexane 1,4-dicarboxylate]	inhibit the growth of beneficial bacteria
diethoxyethyl succinate	inhibit the growth of beneficial bacteria
inulin lauryl carbamate	did not inhibit the growth of beneficial bacteria
sodium dilauramidoglutamide lysine	did not inhibit the growth of beneficial bacteria
